In paper PMC6838683, “Discovery of Human Signaling Systems: Pairing Peptides to G Protein-Coupled Receptors” (Cell, 2019):
Where two headings read alike, the source gives them in different places. Positions of bridges follow the written chain, without caps; N, C: chain ends. No end group written: not given here.

How the values were obtained:
GPR32 = test: Repeat of proposed literature pairing (mass redistribution and/or internalization); assay type: cell-based, human
Source text: (§1) DMR assays provide a single integrated readout of ligand-dependent cellular response, utilizing an optical biosensor in specialized microplates to detect wavelength shifts of reflected light as it passes through the biosensor and the lower portion of the cell (∼150-200 nm). As a signal pathway agnostic approach, DMR assays are well-suited to the study of GPCRs ([Fang et al., 2008], [Schröder et al., 2011]). The mass redistribution response (Δ picometer (pm)) likely reflects a number of intracellular events, including cytoskeletal rearrangement, protein trafficking and receptor internalization. Orphan receptor-expressing cells were gently washed twice with assay buffer (HBSS with 1 mM CaCl2, 1 mM MgCl2, 20 mM HEPES, 0.01% pluronic F-68, pH 7.4) containing 0.1% DMSO and cells were equilibrated for 90 min at 22°C in the EPIC Benchtop (BT) System (Corning) to establish a stable DMR signal. After 3-5 min baseline recordings, peptides (10 μM) were added in duplicate wells using an electronic 384-channel Viaflo pipette (Integra Biosciences, Switzerland) and DMR responses were measured for 60 min at 22°C. 100 nM norepinephrine was included as an internal assay control to assess the cellular DMR response via endogenously-expressed adrenoceptors in the TREx 293 cells. Real-time data were processed using the BT to column converter MS-Excel macro (Corning) and analyzed in GraphPad Prism 7.0. DMR recordings in peptide screening experiments were buffer and solvent corrected and the area under the curve (AUC) was quantified. For subsequent validation experiments, peptides were diluted in assay buffer containing 0.1% DMSO and DMR assays were performed as above. […] Data represent mean ± standard error of the mean (SEM) from at least 3 biologically independent experiments.
(§2) A TR-FRET real-time internalization assay was used to examine peptide-dependent changes in orphan receptor localization as described previously ([Foster and Bräuner-Osborne, 2018]). Surface-expressed SNAP-tagged receptors were labeled with a cell-impermeable luminescent terbium cryptate (100 nM SNAP Lumi4-Tb; Cisbio, France) for 1 hr at 37°C. Cells were washed to remove excess terbium and incubated with fluorescein-O-acetic acid (100 μM; Sigma Aldrich) for 5 min at 37°C. Peptides were added as for DMR assays, and internalization responses were recorded for 60 min at 37°C using an EnVision 2104 Multimode plate reader (PerkinElmer). 100 nM GLP-1 was used as a positive control for SNAP-GLP1R internalization. Real-time internalization responses were calculated based on TR-FRET (excitation 340 nm; emission 520 nm and 615 nm), and were expressed as the ratio between donor (terbium) and acceptor (fluorescein) emission. For peptide screening analysis (both DMR and internalization assays), we calculated the area under the curve from the real-time traces. As the magnitude of the responses was variable between orphan receptor targets, particularly for the SNAP-tag based internalization assay where the signal is dependent on receptor surface expression, the AUC values were normalized to their respective plate averages and expressed as fold change. Validation experiments for receptor internalization were performed as above. Internalization data was processed in MS-Excel and area under the curve was used to generate concentration-response curves using GraphPad Prism 7.0. Data represent mean ± standard error of the mean (SEM) from at least 3 biologically independent experiments.

human GPCRs = test system: human GPCRs; design: method as in Guide to Pharmacology database; conditions: max reported value, ref Guide to Pharmacology database, cited from earlier work
Source text: Supplement mmc1.xlsx, sheet "HumanGPCRLigands" | column: pKi_value; pKd_value; pEC50_value; pIC50_value

GPR83 = test: Repeat of proposed literature pairing (mass redistribution and/or internalization); assay type: cell-based, human
Source text: as §1, §2

GPR15 [1] = biological target: T1, GPR15 (Homo sapiens, UniProt P49685); test: cAMP inhibition (Gi/o), HTRF with forskolin; assay type: cell-based; conditions: receptor GPR15, mean, SEM and n (4)
T1 construct: hIL-2Ra signal peptide (N); expressed in transfected cells
T1 sequence (P49685 2-360 limits assumed): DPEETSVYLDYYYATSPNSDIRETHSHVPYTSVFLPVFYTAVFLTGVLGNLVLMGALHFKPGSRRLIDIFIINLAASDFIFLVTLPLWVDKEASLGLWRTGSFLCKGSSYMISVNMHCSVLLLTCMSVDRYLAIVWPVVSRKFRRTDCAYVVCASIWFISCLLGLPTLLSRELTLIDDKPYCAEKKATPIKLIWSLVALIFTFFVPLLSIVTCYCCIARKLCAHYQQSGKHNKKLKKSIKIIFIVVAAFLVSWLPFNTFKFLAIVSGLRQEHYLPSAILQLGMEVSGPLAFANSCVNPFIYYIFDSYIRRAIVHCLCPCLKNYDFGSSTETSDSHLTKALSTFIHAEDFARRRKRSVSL
Experimental: Peptide-dependent second messenger responses were measured using commercially available HTRF-based IP1 and cAMP kits (Cisbio) as described previously ([Nørskov-Lauritsen et al., 2014]). Receptor expression was induced for 48 hr with 0.1 μg/ml doxycycline in 10 cm dishes. For IP1 measurements (to measure Gq/11), 2,500 cells/well were mixed with ligands in triplicate wells in low volume white 384-well plates at 37°C for 30 min. For cAMP assays, 2,500 cells/well were added in triplicate wells in white 384-well plates in the absence or presence of 3 μM forskolin (to measure Gs and Gi/o activation respectively). 100 μM IBMX was included to prevent cAMP degradation during 30 min stimulation on a plate shaker at room temperature. For both assays, HTRF was measured using an EnVision 2104 Multimode plate reader (PerkinElmer).

GPR15 [2] = biological target: T1, GPR15; test: Dynamic mass redistribution (DMR), concentration-response; assay type: cell-based; conditions: receptor GPR15; mean, SEM and n (3); read-out: DMR assays pEC50 (converted)
Experimental: (§3) 48 hr prior to parallel assaying, SNAP-tagged oGPCR cells were plated (10,000 cells/well) in fibronectin-coated 384-well Epic biosensor microplates (Corning) and poly-D-lysine coated white 384-well plates (for internalization assays). SNAP- GLP-1 receptor was plated alongside orphan receptor cells as an internal assay control for internalization assays. Receptor-expression was induced with 0.1 μg/ml doxycycline.
as §1

GPR15 [3] = biological target: T1, GPR15; test: Real-time receptor internalization (TR-FRET), concentration-response; assay type: cell-based; conditions: mean, SEM and n (3), read-out: Internalization assays pEC50 (converted)
Experimental: as §3, §2

GPR19 = test: Repeat of proposed literature pairing (mass redistribution and/or internalization); assay type: cell-based, human
GPR151 = test: as above; assay type: cell-based, human
Source text: as §1, §2

P2RY10 = test: as above; assay type: cell-based, human; conditions: for receptor-dependent activation by proposed ligand, P2RY10: repeat of literature pairing across multiple assays, Figure S7A, Tables S5 and S7
Source text: as §1, §2

GPR37L1 = test: as above; assay type: cell-based, human
Source text: as §1, §2

GPR37 = test: as above; assay type: cell-based, human
Source text: as §1, §2

[4] = repeat of literature pairing, Figure S7A, Tables S5 and S7
[5] = receptor galr1_human (GALR1, P47211)
[6] = receptor galr2_human (GALR2, O43603)
[7] = receptor galr3_human (GALR3, O60755)

In the case of `CC/C=C\C[C@H](O)/C=C/C=C\C=C\C=C\[C@@H](O)[C@@H](O)C/C=C\CCC(=O)O` [RvD1], the “Lipid pairing for orphan receptor GPR32 (confirmed/unconfirmed)” value (GPR32; repeat of literature pairing) is reported as “Unconfirmed lipid pairings for orphans”.

For `CC/C=C\C[C@H](O)/C=C/C=C\C=C\C=C\[C@@H](O)[C@@H](O)C/C=C\CCC(=O)O` [resolvin D1], the “receptor-dependent activation by proposed ligand, GPR32” value (GPR32; [4]) was “no activity”, the “Comment (response in DMR / internalization assays)” value (GPR32; target GPR32) was “No response in any assay” and the “Active in DMR/internalization” value (GPR32; target GPR32, reported ligand tested on receptor-expressing cell line) was “No”. The pEC50_value (human GPCRs; receptor fpr2_human (FPR2, P25090)) was 11.9 and the pEC50_value (human GPCRs; receptor gpr32_human (GPR32), Class A orphans) was 11.1.

For “PEN: neuroendocrine peptide PEN, proposed GPR83 ligand (AADHDVGSELPPEGVLGALLRV)”, the “Peptide pairing for orphan receptor GPR83 (confirmed/unconfirmed)” value (GPR83; repeat of literature pairing) was “Confirmed peptide pairings for orphans”, the “receptor-dependent activation by proposed ligand, GPR83” value (GPR83; repeat of literature pairing across multiple assays, Figure S7A, Tables S5 and S7) was “selective receptor-dependent activation” and the “Comment (response in DMR / internalization / Tango assays)” value (GPR83; target GPR83) was “PEN is included in library (peptide 146) and was purchased separately. Active in DMR, inactive in internalization, but also active in Tango”. For the same molecule, the “Active in DMR/internalization” value (GPR83; target GPR83, reported ligand tested on receptor-expressing cell line) was “Yes (DMR)”.

“TRLCCHRVPSPNSTNLKGHHVRLCKPCKLEPEPRLWVVPGALPQV (disulfide 4-27, 5-24) [64.3 (Phoenix)]” gave an Emax (GPR15 [1]; read-out: cAMP accumulation assays Emax (% FSK)) of 40.8%, an EC50 (GPR15 [1]; read-out: cAMP accumulation assays pEC50 (converted)) of 0.0257 µM and an EC50 (GPR15 [2]) of 0.0132 µM. The EC50 (GPR15 [3]) was 0.447 µM.

For “adropin (CHSRSADVDSLSESSPNSSPGPCPEKAPPPQKPSHEGSYLLQP; not fully specified; cysteine pairing not given here; UniProt Q6UWT2 34-76, looked up) [proposed GPR19 ligand]”, the “Peptide pairing for orphan receptor GPR19 (confirmed/unconfirmed)” value (GPR19; repeat of literature pairing) was “Unconfirmed peptide pairings for orphans”, the “receptor-dependent activation by proposed ligand, GPR19” value (GPR19; [4]) was “no activity” and the “Comment (response in DMR / internalization assays)” value (GPR19; target GPR19) was “No response in any assay”. The “Active in DMR/internalization” value (GPR19; target GPR19, reported ligand tested on receptor-expressing cell line) was “No”.

In the case of galanin [reference compound], the “Peptide pairing for orphan receptor GPR151 (confirmed/unconfirmed)” value (GPR151; repeat of literature pairing) is reported as “Unconfirmed peptide pairings for orphans”, the “receptor-dependent activation by proposed ligand, GPR151” value (GPR151; [4]) is reported as “no activity” and the “Comment (response in DMR / internalization assays)” value (GPR151; target GPR151) is reported as “Galanin is included in library (peptide 177) and was purchased separately. No response in any assay”. For the same molecule, the “Active in DMR/internalization” value (GPR151; target GPR151, reported ligand tested on receptor-expressing cell line) was “No”, the pIC50_value (human GPCRs; [5]) was 9.9 and the pKi_value (human GPCRs; [5]) was 10.5. The pEC50_value (human GPCRs; [6]) was 9.1, the pIC50_value (human GPCRs; [6]) was 9.3 and the pKi_value (human GPCRs; [6]) was 9.1. The pIC50_value (human GPCRs; [7]) was 7.1 and the pKi_value (human GPCRs; [7]) was 7.2.

For lysophosphatidic acid, the “receptor-dependent activation by proposed ligand, P2RY10” value (from here on “receptor-dependent activation … P2RY10”) (P2RY10) was “no activity”.

In the case of lysophosphatidylserine [LPS], the “Lipid pairing for orphan receptor P2RY10 (confirmed/unconfirmed)” value (P2RY10; repeat of literature pairing) is reported as “Confirmed lipid pairings for orphans”, the “receptor-dependent activation … P2RY10” value (P2RY10) is reported as “selective receptor-dependent activation” and the “receptor-dependent activation … P2RY10” value (P2RY10; listed as lysophosphatidylserine) is reported as “marginal”. For the same molecule, the pEC50_value (human GPCRs; receptor gp174_human (GPR174), Class A orphans) was 7.1 and the pEC50_value (human GPCRs; receptor gpr34_human (GPR34), Class A orphans) was 6.9.

For prosaptide, the “Peptide pairing for orphan receptor GPR37L1 (confirmed/unconfirmed)” value (GPR37L1; repeat of literature pairing) was “Unconfirmed peptide pairings for orphans”, the “receptor-dependent activation by proposed ligand, GPR37L1” value (GPR37L1; [4]) was “no activity” and the “Comment (response in DMR / internalization assays)” value (GPR37L1; target GPR37L1) was “No response in any assay”. The “Active in DMR/internalization” value (GPR37L1; target GPR37L1, reported ligand tested on receptor-expressing cell line) was “No”, the “Peptide pairing for orphan receptor GPR37 (confirmed/unconfirmed)” value (GPR37; repeat of literature pairing) was “Unconfirmed peptide pairings for orphans” and the “receptor-dependent activation by proposed ligand, GPR37” value (GPR37; [4]) was “no activity”. The “Comment (response in DMR / internalization assays)” value (GPR37; target GPR37) was “No response in any assay” and the “Active in DMR/internalization” value (GPR37; target GPR37, reported ligand tested on receptor-expressing cell line) was “No”.
